The values below come from EP0062019A1, “New phenyl-perhydroazepines” (priority 1981, dated 1982).

Molecules are shown by their SMILES.

One assay relates to rabbit right atria. Description: Chronotropic effect (heart frequency) in isolated spontaneously beating right atria. Type of assay: cell-based. The following applies: Oryctolagus cuniculus; for EC50: iv, isolated right atria, rabbits pretreated with reserpine (5 mg/kg i.v.), Krebs-buffer pH 7.4, 32°C, read-out: HR EC50; for Emax: maximal effect compared with maximal effect of isoprenaline (intrinsic activity), rabbits pretreated with reserpine, read-out: HR ISA. The method, then:
(§1) Pharmacological studies on cardiac effects on heart frequency and contractility in isolated right atria and papillary muscle from rabbit.
(§2) Rabbits with an average weight of 2.5 kg, pretreated with reserpine (5 mg/kg i.v.) about 16 hours before the experiment were used. The rabbits were killed by a blow and the hearts were rapidly removed. The right atria and a papillary muscle from the right ventricle were isolated and set up to contract isometrically in an organ bath. The bath contained 50 ml Krebs-buffer (pH 7.4) and the temperature was kept at 32°C.
(§3) The contractions were measured by means of a force displacement transducer (Grass Model FT03) coupled to a.Grass Model 7 Polygraph with a preampliphier (Grass Model 7PIF). ,
(§4) The spontaneously beating right atria was stretched to a resting tension high enough to measure the contractions and to trigger a tachograph for registration of the frequency. The papillary muscle was stretched to the length at which maximal tension was developed and was driven at a frequency of 1HZ by a current 20 per cent above threshold and with a duration of 5 msec.
(§5) After 60 min. equilibration, dose response curves to cumulative concentrations of isoprenaline were constructed for chronotropic effect, i.e. increase in frequency (atria) and positive inotropic effect, i.e. increase in contractility (papillary muscle). After wash-out similar curves were constructed for the compounds employed according to the invention. The positive inotropic agent dopamine was included for comparison.
(§6) In order to establish the maximal chronotropic and inotropic responses of the preparations, isoprenaline was added immediately after the maximal concentrations of the compounds. The maximal effects of the compounds compared with the maximal effect of isoprenaline are expressed as intrinsic activity (ISA).

Assay [1] has as its system rabbit right ventricle papillary muscle. Description: Positive inotropic effect (contractility) in isolated, electrically driven papillary muscle. To be noted: for EC50 / Emax: Oryctolagus cuniculus; for EC50: iv, papillary muscle driven at 1HZ, rabbits pretreated with reserpine (5 mg/kg i.v.), Krebs-buffer pH 7.4, 32°C, read-out: Tmax EC50; for Emax: maximal effect compared with maximal effect of isoprenaline (intrinsic activity), rabbits pretreated with reserpine, read-out: Tmax ISA. Type of assay: cell-based. As to the method:
as §1, §2, §3, §4, §5, §6

Usually EC50 stands for the concentration that produces a half-maximal response.

Take `NCCc1ccc(O)c(O)c1` [Dopamine]: in the assay on rabbit right atria, the EC50 was 38 µM and the Emax was determined as 97%. Moreover, in assay [1], the 50% effective concentration (EC50) was 36 µM and the Emax is 77%.
Turning to `CC(C)NCC(O)c1ccc(O)c(O)c1` (stereo not shown) [Isoprenaline], in the assay on rabbit right atria, the EC50 was determined as 0.003 µM and the Emax amounted to 100%. For the same compound, in assay [1], the EC50 was 0.01 µM and the Emax is 100%.
For `CCCN1CCCCC(c2cccc(O)c2)C1` (stereo not shown) [Example 1, 3-(3-hydroxyphenyl)N-n-propylperhydroazepine], in the assay with rabbit right atria, the EC50 is 0.35 µM and the Emax was determined as 31%. Further, in assay [1], the EC50 was 11 µM and the Emax came to 37%. The “EC50 for contractility relative to the EC50 for dopamine” value in assay [1] (fraction of the dopamine EC50) was “about one third”.
